Measurements published in paper PMC2735258 (Journal of medicinal chemistry, 2009).
Several values for one entry are separate records, joined by “and”; a condition that tells them apart may be missing. Equal entries are not always repeated. Where two headings read alike, the source gives them in different places. Square brackets hold non-standard residues; d marks the D form. Ends that are not written are not given here. * marks the point of attachment. pY = N[C@@H](Cc1ccc(OP(=O)(O)O)cc1)C(=O)O; pCinn = not defined here; NHBn = c1ccc(CN*)cc1

How the values were obtained:
Stat3 [1] = target: T1, Stat3 (Homo sapiens, UniProt P40763); experiment: Stat3 SH2 domain affinity, fluorescence polarization; type: binding; conditions: for fold loss in affinity: relative to compound 21; for fold weaker / loss in affinity: relative to compound 28
Stat3 [2] = target: T1, Stat3; conditions: cited from earlier work
[3] = lead phosphopeptides, ref Coleman et al.[16]

T1 sequence (P40763 whole entry, species assumed, the tested form may be a part): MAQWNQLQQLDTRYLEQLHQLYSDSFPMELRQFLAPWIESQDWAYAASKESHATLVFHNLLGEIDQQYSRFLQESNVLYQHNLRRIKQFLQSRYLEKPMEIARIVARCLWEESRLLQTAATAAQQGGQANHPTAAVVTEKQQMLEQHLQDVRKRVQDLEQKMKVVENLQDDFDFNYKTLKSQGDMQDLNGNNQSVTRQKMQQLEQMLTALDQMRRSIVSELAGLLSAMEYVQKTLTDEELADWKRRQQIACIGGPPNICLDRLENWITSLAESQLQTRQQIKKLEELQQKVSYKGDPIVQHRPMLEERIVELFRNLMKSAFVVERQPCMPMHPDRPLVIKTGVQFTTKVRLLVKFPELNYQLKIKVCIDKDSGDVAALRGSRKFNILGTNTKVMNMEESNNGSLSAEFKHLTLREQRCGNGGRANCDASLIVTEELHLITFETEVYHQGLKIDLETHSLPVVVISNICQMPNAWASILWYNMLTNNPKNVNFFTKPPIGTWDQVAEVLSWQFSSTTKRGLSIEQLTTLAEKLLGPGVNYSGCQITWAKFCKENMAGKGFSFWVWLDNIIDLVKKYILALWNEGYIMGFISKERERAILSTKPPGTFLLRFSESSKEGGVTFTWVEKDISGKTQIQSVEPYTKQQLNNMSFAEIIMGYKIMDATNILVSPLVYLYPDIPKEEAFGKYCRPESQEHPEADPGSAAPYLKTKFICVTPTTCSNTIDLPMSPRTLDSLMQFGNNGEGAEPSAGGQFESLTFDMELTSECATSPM

7: XXX-Leu-Pro-Gln-Thr-NH2 with XXX = Ac-pTic; drawing shows XXX only [Compound 7]
IC50 (Stat3 [1]; fluorescence polarization): > 100000 nM

NC(=O)CC[C@H](NC(=O)[C@@H]1CC[C@@H]2CC[C@H](NC(=O)/C=C/c3ccc(OP(=O)(O)O)cc3)C(=O)N21)C(=O)NCc1ccccc1 [Compound 18, pCinn-(3S,6S,9S)-ABN-Gln-NHBn]
fold lower affinity (Stat3 [1]; relative to Leu-Pro analogue 17): 4 fold

O=C(O)CCCNC(=O)[C@@H]1Cc2cccc3c2N1C(=O)[C@@H](NC(=O)/C=C/c1ccc(OP(=O)(O)O)cc1)CC3 [Compound 24, pCinn-Haic-Gaba]
fold loss in affinity (Stat3 [1]): 5 fold

NC(=O)CC[C@H](NC(=O)[C@@H]1Cc2cccc3c2N1C(=O)[C@@H](NC(=O)/C=C/c1ccc(OP(=O)(O)O)cc1)CC3)C(=O)O [Compound 26, pCinn-Haic-Gln-OH]
fold loss in affinity (Stat3 [1]): 2 fold

NC(=O)[C@@H]1Cc2cccc3c2N1C(=O)[C@@H](NC(=O)/C=C/c1ccc(OP(=O)(O)O)cc1)CC3 [Compound 31, pCinn-Haic-NH2]
fold weaker (Stat3 [1]; relative to compound 24): 42 fold
fold weaker / loss in affinity (Stat3 [1]): 150 fold

C[C@H](NC(=O)[C@@H]1Cc2cccc3c2N1C(=O)[C@@H](NC(=O)/C=C/c1ccc(OP(=O)(O)O)cc1)CC3)C(N)=O [Compound 32, pCinn-Haic-Ala-NH2]
activity / affinity for Stat3 in words (Stat3 [1]): micromolar range

C[S+]([O-])CC[C@H](NC(=O)[C@@H]1Cc2cccc3c2N1C(=O)[C@@H](NC(=O)/C=C/c1ccc(OP(=O)(O)O)cc1)CC3)C(N)=O (stereo partly shown) [Compound 34, pCinn-Haic-Met(O)-NH2]
fold weaker / loss in affinity (Stat3 [1]): ~10 fold

CS(=O)(=O)CC[C@H](NC(=O)[C@@H]1Cc2cccc3c2N1C(=O)[C@@H](NC(=O)/C=C/c1ccc(OP(=O)(O)O)cc1)CC3)C(N)=O [Compound 35, pCinn-Haic-Met(O2)-NH2]
fold weaker / loss in affinity (Stat3 [1]): ~10 fold

Ac-Tyr(PO3H2)-Leu-Pro-Gln-NHBn (Ac-[pY]LPQ-NHBn; SMILES CC(=O)N[C@@H](Cc1ccc(OP(=O)(O)O)cc1)C(=O)N[C@@H](CC(C)C)C(=O)N1CCC[C@H]1C(=O)N[C@@H](CCC(N)=O)C(=O)NCc1ccccc1) [Compound 4]
IC50 (Stat3 [2]; [3]): 409 ± 15 nM

Ac-Tyr(PO3H2)-Leu-Pro-Gln-Thr-NH2 (Ac-[pY]LPQT-NH2; SMILES CC(=O)N[C@@H](Cc1ccc(OP(=O)(O)O)cc1)C(=O)N[C@@H](CC(C)C)C(=O)N1CCC[C@H]1C(=O)N[C@@H](CCC(N)=O)C(=O)N[C@H](C(N)=O)[C@@H](C)O) [Compound 2]
IC50 (Stat3 [2]; [3]): 740 nM and 739 nM

Ac-[pY]LPQ-NH2 [Compound 3]
IC50 (Stat3 [2]; [3]): 856 ± 41 nM

pCinn-Leu-Pro-Gln-NHBn ([pCinn]LPQ-NHBn; reading uncertain; also: printed as pCinn-Leu-Pro-Gln-NHBn) [Compound 17]
IC50 (Stat3 [2]; ref [69]): 138 ± 8 nM
